Here are results for 19 compounds from patent EP1953147A1, “HETEROCYCLIC COMPOUND AND MEDICINAL APPLICATION THEREOF” (priority 2005, dated 2007).

Structures are written as SMILES. Where only a bound is given, the exact number is not on record here.

For the assay, the system named is ΔG/SEAP/HCV E1E2. The experiment in a line: Effect of test substance on cell infection with HCV pseudotype virus (SEAP reporter assay in HepG2 cells). Type of assay: cell-based. Conditions: Hepatitis C virus. (In general: Reporter assays use an easily measured gene product as a stand-in for the process of interest.)

As a reminder, the IC50 is the concentration needed to halve the response being measured. Regarding `COc1cc(OC)cc(-c2nn(-c3cc(NCC(N)=O)ccc3C(F)(F)F)c(=O)c3c2CCC3)c1` [Example 123, 2-{3-[4-(3,5-dimethoxy-phenyl)-1-oxo-1,5,6,7-tetrahydro-cyclopenta[d]pyridazin-2-yl]-4-trifluoromethyl-phenylamino}-acetamide], the 50% inhibitory concentration (IC50) is under 100 nM.
As for `COc1cc(OC)cc(-c2nn(-c3cc(N4CCOCC4)ccc3C(F)(F)F)c(=O)c3c2CCC3)c1` [Example 70, 4-(3,5-dimethoxy-phenyl)-2-(5-morpholin-4-yl-2-trifluoromethyl-phenyl)-2,5,6,7-tetrahydro-cyclopenta[d]pyridazin-1-one], the figure is under 100 nM; as for `COc1cc(OC)cc(-c2nn(-c3cc(F)ccc3C(F)(F)F)c(=O)c3c2CCC3)c1` [Example 1-12, 4-(3,5-dimethoxy-phenyl)-2-(5-fluoro-2-trifluoromethylphenyl)-2,5,6,7-tetrahydro-cyclopenta[d]pyridazin-1-one], 100 to 10000 nM; as for `Cc1cc(-c2cnco2)cc(-c2nn(-c3cc(N4CC[C@H](O)C4)ccc3C(F)(F)F)c(=O)c3c2CCCN3)c1` [Example 1-38, 7-[5-((S)-3-hydroxy-pyrrolidin-1-yl)-2-trifluoromethylphenyl]-5-[3-methyl-5-(oxazol-5-yl)-phenyl]-1,3,4,7-tetrahydro-2H-pyrido[2,3-d]pyridazin-8-one], under 100 nM.
Under `CCCCCC(=O)NCCNC(=O)CN1CCc2c(-c3cc(OC)cc(OC)c3)nn(-c3cc(N4CC[C@H](O)C4)ccc3C(F)(F)F)c(=O)c21` [Example 46, hexanoic acid [2-(2-{4-(3,5-dimethoxy-phenyl)-6-[5-((S)-3-hydroxy-pyrrolidin-1-yl)-2-trifluoromethylphenyl]-7-oxo-2,3,6,7-tetrahydro-pyrrolo[2,3-d]pyridazin-1-yl}-acetylamino)-ethyl]-amide] stands under 100 nM; under `COc1cc(OC)cc(-c2nn(-c3cc(N4CC[C@@H](O)C4)ccc3C(F)(F)F)c(=O)c3c2CCN3C(=O)OC(C)(C)C)c1` [Example 59, 4-(3,5-dimethoxy-phenyl)-6-[5-((R)-3-hydroxy-pyrrolidin-1-yl)-2-trifluoromethyl-phenyl]-7-oxo-2,3,6,7-tetrahydro-pyrrolo[2,3-d]pyridazine-1-carboxylic acid tert-butyl ester], under 100 nM; under `O=c1c2c(c(-c3cccnc3)nn1-c1cc(N3CC[C@H](O)C3)ccc1C(F)(F)F)CCC2` [Example 103, 2-[5-((S)-3-hydroxy-pyrrolidin-1-yl)-2-trifluoromethyl-phenyl]-4-pyridin-3-yl-2,5,6,7-tetrahydro-cyclopenta[d]pyridazin-1-one], 100 to 10000 nM.
Under `COc1cc(OC)cc(-c2nn(-c3cc(C#CCO)ccc3C(F)(F)F)c(=O)c3c2CCC3)c1` [Example 120, 4-(3,5-dimethoxy-phenyl)-2-[5-(3-hydroxy-prop-1-ynyl)-2-trifluoromethyl-phenyl]-2,5,6,7-tetrahydro-cyclopenta[d]pyridazin-1-one] stands under 100 nM; under `O=c1c2c(c(-c3ccsc3)nn1-c1cc(N3CC[C@H](O)C3)ccc1C(F)(F)F)CCC2` [Example 158, 2-[5-((S)-3-hydroxy-pyrrolidin-1-yl)-2-trifluoromethyl-phenyl]-4-thiophen-3-yl-2,5,6,7-tetrahydro-cyclopenta[d]pyridazin-1-one], 100 to 10000 nM.
As to `CCOC(=O)N1CCc2c(-c3cc(OC)cc(OC)c3)nn(-c3cc(N4CC[C@H](O)C4)ccc3C(F)(F)F)c(=O)c21` [Example 60, 4-(3,5-dimethoxy-phenyl)-6-[5-((S)-3-hydroxy-pyrrolidin-1-yl)-2-trifluoromethyl-phenyl]-7-oxo-2,3,6,7-tetrahydro-pyrrolo[2,3-d]pyridazine-1-carboxylic acid ethyl ester], the IC50 was under 100 nM.
The compound `CCC(O)CN1CCc2c(-c3cc(OC)cc(OC)c3)nn(-c3cc(N4CC[C@H](O)C4)ccc3C(F)(F)F)c(=O)c21` (stereo partly drawn) [Example 30, 4-(3,5-dimethoxy-phenyl)-1-(2-hydroxy-butyl)-6-[5-((S)-3-hydroxy-pyrrolidin-1-yl)-2-trifluoromethylphenyl]-1,2,3,6-tetrahydro-pyrrolo[2,3-d]pyridazin-7-one] gave an IC50 of under 100 nM.
Under `COc1cc(OC)cc(-c2nn(-c3cc(N4CC[C@H](O)C4)ccc3C(F)(F)F)c(=O)c3c2CCN3CC(=O)O)c1` [Example 27, {4-(3,5-dimethoxy-phenyl)-6-[5-((S)-3-hydroxy-pyrrolidin-1-yl)-2-trifluoromethyl-phenyl]-7-oxo-2,3,6,7-tetrahydro-pyrrolo[2,3-d]pyridazin-1-yl}-acetic acid] stands under 100 nM; under `CCCCCCNC(=O)CN1CCc2c(-c3cc(OC)cc(OC)c3)nn(-c3cc(N4CC[C@H](O)C4)ccc3C(F)(F)F)c(=O)c21` [Example 35, 2-{4-(3,5-dimethoxy-phenyl)-6-[5-((S)-3-hydroxy-pyrrolidin-1-yl)-2-trifluoromethyl-phenyl]-7-oxo-2,3,6,7-tetrahydro-pyrrolo[2,3-d]pyridazin-1-yl}-N-hexyl-acetamide], under 100 nM.
For `CCOc1ccc(C(F)(F)F)c(-n2nc(-c3cc(OC)cc(OC)c3)c3c(c2=O)CCC3)c1` [Example 62, 4-(3,5-dimethoxy-phenyl)-2-(5-ethoxy-2-trifluoromethyl-phenyl)-2,5,6,7-tetrahydro-cyclopenta[d]pyridazin-1-one], the IC50 was under 100 nM.
`COc1cc(OC)cc(-c2nn(-c3cc(N4CC[C@@H](O)C4)ccc3C(F)(F)F)c(=O)c3c2CCC3)c1` [Example 21, 4-(3,5-dimethoxy-phenyl)-2-[5-((R)-3-hydroxy-pyrrolidin-1-yl)-2-trifluoromethyl-phenyl]-2,5,6,7-tetrahydro-cyclopenta[d]pyridazin-1-one] displayed an IC50 of under 100 nM.
Compound `COc1cc(C)cc(-c2nn(-c3cc(N4CC[C@H](O)C4)ccc3C(F)(F)F)c(=O)c3c2CCC3)c1` [Example 7, 2-[5-((S)-3-hydroxy-pyrrolidin-1-yl)-2-trifluoromethyl-phenyl]-4-(3-methoxy-5-methyl-phenyl)-2,5,6,7-tetrahydro-cyclopenta[d]pyridazin-1-one] returned an IC50 of under 100 nM.
Compound `CCCOc1ccc(C(F)(F)F)c(-n2nc(-c3cc(OC)cc(OC)c3)c3c(c2=O)CCC3)c1` [Example 53, 4-(3,5-dimethoxy-phenyl)-2-(5-propoxy-2-trifluoromethyl-phenyl)-2,5,6,7-tetrahydro-cyclopenta[d]pyridazin-1-one] returned an IC50 of under 100 nM.
As for `COc1cc(OC)cc(-c2nn(-c3cc(-c4cccnn4)ccc3C(F)(F)F)c(=O)c3c2CCN3)c1` [Example 17, 4-(3,5-dimethoxy-phenyl)-6-(5-pyridazin-3-yl-2-trifluoromethyl-phenyl)-1,2,3,6-tetrahydro-pyrrolo[2,3-d]pyridazin-7-one], the figure is under 100 nM; as for `COc1cc(OC)cc(-c2nn(-c3cc(NCC(C)O)ccc3C(F)(F)F)c(=O)c3c2CCC3)c1` (stereo not shown) [Example 132, 4-(3,5-dimethoxy-phenyl)-2-[5-(2-hydroxy-propylamino)-2-trifluoromethyl-phenyl]-2,5,6,7-tetrahydro-cyclopenta[d]pyridazin-1-one], under 100 nM.
